Values after ≈ are worked out from the molar mass of the structure shown.
Legend:
ZIKV [1] = settings: recently reported; cited from earlier work
ZIKV NS2B-NS3 protease = ZIKV NS2B-NS3 protease (Zika virus, UniProt A0A024B7W1, DEL1468-1502); type: biochemical; settings: 10 μM substrate; for Effect of increasing drug concentrations on protease activity: 5 nM protease
[2] = test system: ZIKV (Puerto Rico strain PRVABC59); test: Viral load reduction assay (qRT-PCR) in Vero cells; type: cell-based, Zika virus; settings: culture supernatants, Vero and Huh-7; data not shown
[3] = Cell viability (MTT) assay in Vero cells; type: cell-based; settings: African green monkey
Method: (§1) Briefly, Vero or Huh-7 cells (4×10^4 cells/well) were incubated with different concentrations of individual drug for 24 h, followed by the addition of 10 μl/well of 5 mg/ml MTT substrate. The monolayers were incubated as above for 4 h (away from light). Finally, 100 μl of 10% sodium dodecyl sulfate (SDS) with 0.01M HCl was added and further incubated at 37° C. with 5% CO2 overnight. […] Briefly, the drug compounds were diluted with serum-free MEM and added to confluent Vero cells in 96-well culture plates (4×10^4 cells/well) in triplicate for 2 h at 37° C. After incubation, the drug-containing media were removed, and ZIKV (multiplicity of infection, MOI=0.0002) was added together with fresh drug-compound media to each well. Following 1 h of adsorption at 37° C., the virus-compound mixture was removed and the cells were washed twice with MEM to remove unbound virus. Subsequently, media with antiviral compounds were added to the cells for further incubation for 6 days at 37° C. in a 5% CO2 humidified environment. CPE was examined by inverted light microscopy (Chan et al., 2016b). Thereafter, MTT substrate and SDS-HCl were added sequentially as mentioned above. The half maximal inhibitory concentration (IC50) and CC50 were calculated using Sigma plot (SPSS) in an Excel add-in ED50V10.

[4] = Cell viability (MTT) assay in Huh-7 cells; type: cell-based; settings: human
Method: as §1

[5] = test system: ZIKV NS2B-NS3 protease (recombinant fusion, ZIKV-NS2B residues 49-95 and ZIKV-NS3 residues 1-170); test: Fluorescence-based protease inhibition assay; type: biochemical, Zika virus; settings: 10 μM substrate, 5 nM protease
Source text: The recombinant ZIKV NS2B-NS3 protease was produced as previously described with some modifications (Lei et al., 2016). Briefly, coding regions of the ZIKV-NS2B (residues 49-95) and ZIKV-NS3 (residues 1-170) genes were fused and cloned into the pET-28b(+) expression vector (Novagen, Merck & Co., New Jersey, USA). The plasmid was transformed into Escherichia coli strain BL21 (DE3) and overexpressed in 2×YT medium. When the OD600 of the culture reached 0.8, overexpression of the ZIKV NS2B-NS3 protease gene was induced for overnight by addition of 0.5 mM IPTG at 20° C. […] The purified protein was detected by Western blot using anti-His-tag antibodies. Concentration of protein was determined by Bradford protein assay kit (Bio-Rad Laboratories, California, USA) using bovine serum albumin as standard.
The recombinant ZIKV NS2B-NS3 protease was produced as previously described with some modifications (Lei et al., 2016). To detect ZIKV NS2B-NS3 protease activity, a fluorescence-based enzymatic assay was conducted in 96-well black micro-plates (Greiner Bio-One, Kremsmünster, Germany). […] The fluorescence signal from the released AMC was measured at 460 nm with excitation at 360 nm, using a VICTOR™ X3 multilabel plate reader (Perkin Elmer, Massachusetts, USA). […] After 10 min, the fluorescence intensity was measured. […]

[6] = oral and parenteral; cited from earlier work
ZIKV [7] = settings: literature; cited from earlier work

Sequence of ZIKV NS2B-NS3 protease (A0A024B7W1 1502-1672, added parts left off, stated change not applied): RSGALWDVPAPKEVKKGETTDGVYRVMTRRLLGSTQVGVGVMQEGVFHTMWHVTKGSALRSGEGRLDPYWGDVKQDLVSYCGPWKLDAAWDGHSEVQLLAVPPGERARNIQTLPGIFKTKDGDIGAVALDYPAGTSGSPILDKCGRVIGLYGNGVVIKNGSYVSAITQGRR

CCN(CC)CCCC(C)Nc1ccnc2cc(Cl)ccc12 (centres unmarked) [Chloroquine]
In vitro anti-ZIKV effects (ZIKV [1]): in vitro anti-ZIKV effects

CO[C@H]1/C=C/O[C@@]2(C)Oc3c(C)c(O)c4c(O)c(c(/C=N/N5CCN(C)CC5)c(O)c4c3C2=O)NC(=O)/C(C)=C\C=C\[C@H](C)[C@H](O)[C@@H](C)[C@@H](O)[C@@H](C)[C@H](OC(C)=O)[C@@H]1C [Rifampicin]
Effect of increasing drug concentrations on protease activity (ZIKV NS2B-NS3 protease): dose-dependent reduction in protease activity
Dose-dependent reduction in virus titer observed [2]: not
CC50 at 24 h [3]: 400 µg/mL (≈ 486 µM)
CC50 at 24 h [4]: 400 µg/mL (≈ 486 µM)

Aprotinin [listing 1 of 2 here]
Reduction in protease activity with increasing concentrations [5]: blocked the protease cleavage activity

O=C(Nc1ccc([N+](=O)[O-])cc1Cl)c1cc(Cl)ccc1O [niclosamide]
Solubility [6]: insoluble

Octreotide acetate
Effect of increasing drug concentrations on protease activity (ZIKV NS2B-NS3 protease): dose-dependent reduction in protease activity

O=C(Nc1ccc([N+](=O)[O-])cc1Cl)c1cc(Cl)ccc1O [Niclosamide]
In vitro anti-ZIKV effects (ZIKV [1]): in vitro anti-ZIKV effects

CC[C@H]1OC(=O)[C@H](C)[C@@H](O[C@H]2C[C@@](C)(OC)[C@@H](O)[C@H](C)O2)[C@H](C)[C@@H](O[C@@H]2O[C@H](C)C[C@H](N(C)C)[C@H]2O)[C@](C)(O)C[C@@H](C)CN(C)[C@H](C)[C@@H](O)[C@]1(C)O [Azithromycin]
In vitro anti-ZIKV effects (ZIKV [1]): in vitro anti-ZIKV effects

CC[C@H](C)[C@H]1O[C@]2(CC[C@@H]1C)C[C@@H]1C[C@@H](C/C=C(\C)[C@@H](O[C@H]3C[C@H](OC)[C@@H](O[C@H]4C[C@H](OC)[C@@H](O)[C@H](C)O4)[C@H](C)O3)[C@@H](C)/C=C/C=C3\CO[C@@H]4[C@H](O)C(C)=C[C@@H](C(=O)O1)[C@]34O)O2 [Ivermectin]
In vitro anti-ZIKV effects (ZIKV [1]): in vitro anti-ZIKV effects

Aprotinin [listing 2 of 2 here]
IC50 (vs protease activity) (ZIKV NS2B-NS3 protease; 5 nM ZIKV NS2B-NS3 protease, positive control): 13.6 ± 1.1 KIU/ml

CCCCCCCCCC(=O)N[C@@H](Cc1c[nH]c2ccccc12)C(=O)N[C@H](CC(N)=O)C(=O)N[C@@H](CC(=O)O)C(=O)N[C@@H]1C(=O)NCC(=O)N[C@@H](CCCN)C(=O)N[C@@H](CC(=O)O)C(=O)N[C@H](C)C(=O)N[C@@H](CC(=O)O)C(=O)NCC(=O)N[C@H](CO)C(=O)N[C@@H]([C@H](C)CC(=O)O)C(=O)N[C@@H](CC(=O)c2ccccc2N)C(=O)O[C@@H]1C [Daptomycin]
In vitro anti-ZIKV effects (ZIKV [1]): in vitro anti-ZIKV effects

CC(C)OC(=O)[C@H](C)N[P@](=O)(OC[C@H]1O[C@@H](n2ccc(=O)[nH]c2=O)[C@](C)(F)[C@@H]1O)Oc1ccccc1 [Sofosbuvir]
In vitro anti-ZIKV effects (ZIKV [1]): in vitro anti-ZIKV effects
Efficacy in animal models (ZIKV [7]): effective in animal models

OC(c1cc(C(F)(F)F)nc2c(C(F)(F)F)cccc12)C1CCCCN1 (centres unmarked) [Mefloquine]
In vitro anti-ZIKV effects (ZIKV [1]): in vitro anti-ZIKV effects

N=C(N)NCCC[C@H](NC(=O)[C@@H]1CCCN1C(=O)[C@@H]1CSSCCC(=O)N[C@@H](Cc2ccc(O)cc2)C(=O)N[C@@H](Cc2ccccc2)C(=O)N[C@@H](CCC(N)=O)C(=O)N[C@@H](CC(N)=O)C(=O)N1)C(=O)NCC(N)=O [Desmopressin acetate]
Effect of increasing drug concentrations on protease activity (ZIKV NS2B-NS3 protease): dose-dependent reduction in protease activity

— patent US11517581B2, “Zika virus protease inhibitors and methods of use thereof” (priority 2017, dated 2022)
